Literature values, collected in US8987322B2, “Pharmaceutical formulations for carrier-mediated transport statins and uses thereof” (Circ Pharma Research and Development Limited, priority 2003, dated 2015).

Legend:
HMG-CoA reductase = biological target: T1, HMG-CoA reductase (Homo sapiens, UniProt P04035)
T1 sequence (P04035 1-888): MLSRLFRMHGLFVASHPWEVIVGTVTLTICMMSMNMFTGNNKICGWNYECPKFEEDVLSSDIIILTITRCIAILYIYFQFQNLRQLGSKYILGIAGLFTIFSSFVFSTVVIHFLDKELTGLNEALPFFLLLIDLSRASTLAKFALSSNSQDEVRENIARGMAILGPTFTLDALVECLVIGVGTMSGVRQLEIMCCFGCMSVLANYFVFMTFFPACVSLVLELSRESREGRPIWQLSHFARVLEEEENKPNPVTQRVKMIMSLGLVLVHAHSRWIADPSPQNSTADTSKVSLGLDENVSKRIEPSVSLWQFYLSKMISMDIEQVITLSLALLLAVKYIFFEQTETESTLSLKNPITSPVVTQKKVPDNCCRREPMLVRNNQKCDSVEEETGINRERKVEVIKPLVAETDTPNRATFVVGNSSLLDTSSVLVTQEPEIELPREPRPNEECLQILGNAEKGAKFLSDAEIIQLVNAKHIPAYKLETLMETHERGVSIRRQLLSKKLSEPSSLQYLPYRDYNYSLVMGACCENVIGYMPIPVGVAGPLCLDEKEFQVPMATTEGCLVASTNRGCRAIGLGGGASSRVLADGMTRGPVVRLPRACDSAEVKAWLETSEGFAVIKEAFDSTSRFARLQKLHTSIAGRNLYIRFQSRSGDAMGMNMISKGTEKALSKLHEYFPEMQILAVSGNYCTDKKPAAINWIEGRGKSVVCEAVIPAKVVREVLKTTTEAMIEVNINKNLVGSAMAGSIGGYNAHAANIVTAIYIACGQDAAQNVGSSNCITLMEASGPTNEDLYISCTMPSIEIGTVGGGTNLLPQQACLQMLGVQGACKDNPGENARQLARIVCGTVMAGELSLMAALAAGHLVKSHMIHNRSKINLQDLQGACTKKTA

rat hepatocytes = conditions: White (2002), read-out: IC50, inhibition of sterol synthesis
[1] = not given; remark: listed apart in the source
[2] = not given; remark: listed apart in the source
[3] = like that found in the stomach
[4] = test system: LDL-C, HDL-C and triglyceride levels; conditions: Malinowski (1998)

| share of the inhibitory activity due to the parent compound (HMG-CoA reductase; White (2002)) | clearance through biliary excretion ([2]; Cheng-Lai (2003)) | excreted in the urine ([2]; Cheng-Lai (2003)) | hepatic extraction (share of the absorbed dose extracted by the liver) ([2]; Igel et al. (2002)) | dose dependence of Cmax and AUC ([2]; doses ranging from 5 to 80 mg) | elimination half-life (t1/2) ([2]; in vivo) | stability in an acidic environment [3] | share of atorvastatin's inhibitory activity accounted for by its o-hydroxylated and p-hydroxylated metabolites (HMG-CoA reductase) | duration of HMG-CoA reductase inhibition (HMG-CoA reductase; due to the inhibitory activity of metabolites) | fraction of drug absorbed from the intestine taken up by the liver ([2]; first-pass) | fraction of orally administered drug absorbed from the intestine ([2]; oral) | systemic availability of active inhibitors (parent drug and its metabolites) ([2]; oral) | Compound | water solubility class as defined in the U.S. Pharmacopeia (2002) | IC50 (rat hepatocytes) | adverse effect at high doses ([1]; 80 mg and higher, phase III clinical trials) | tolerability in humans ([1]; doses ranging from 1 to 40 mg) | effect of food on absorption ([2]; presence of food) | reduction of LDL-C levels [4] |
| --- | --- | --- | --- | --- | --- | --- | --- | --- | --- | --- | --- | --- | --- | --- | --- | --- | --- | --- |
| 90% | 90% | 10% | up to 90% | relatively linear relationship | 20 h | stable in acidic environments | – | – | – | – | – | CC(C)c1nc(N(C)S(C)(=O)=O)nc(-c2ccc(F)cc2)c1/C=C/[C@@H](O)C[C@@H](O)CC(=O)O (single isomer, unassigned) [rosuvastatin] | sparingly soluble (“sparingly soluble” refers to an aqueous solubility that ranges from about 1/30 to about 1/100 (mg/ml)) | 0.16 nM | associated with myopathy | well tolerated | overall extent of absorption remains constant | – |
| – | – | – | – | – | – | – | approximately 70% | 20 to 30 h | ≥ 70% | about 30% | 30% | CC(C)c1c(C(=O)Nc2ccccc2)c(-c2ccccc2)c(-c2ccc(F)cc2)n1CC[C@@H](O)C[C@@H](O)CC(=O)O [atorvastatin] | – | – | – | – | – | 40-60% |
| – | – | – | – | – | – | unstable in an acidic environment | – | – | – | – | – | CC[C@H](C)C(=O)O[C@H]1C[C@H](O)C=C2C=C[C@H](C)[C@H](CC[C@@H](O)C[C@@H](O)CC(=O)O)[C@H]21 [pravastatin] | – | – | – | – | – | – |
